Read-outs that look alike come from different tables or passages of the source.
What was measured:
miR-122 [1] = experiment: miRNA detection using an RNase protection assay (chimeric DNA/RNA probe, ECL); conditions: synthetic miR-122 miRNA
From the text: An RNase protection assay can be used for miRNA quantification. In the assay, a DNA/RNA chimeric probe is used that contains an oligonucleotide tag sequence that is complementary a capture oligonucleotide sequence and a miRNA complementary sequence. The oligonucleotide tag sequence can be a single stranded DNA (ssDNA) sequence included on the 5′ end of the chimeric probe and the miRNA complementary sequence can be a single stranded RNA (ssRNA) sequence at the 3′ end of the chimeric probe, along with a terminal 3′ biotin.
Briefly, miRNA can be detected as follows: • 1). Hybridize miRNA to the chimeric probe in a thermal cycler to form a hybridization product; • 2). Block assay plate using one or more known blocking agent; • 3). Add hybridization product with formamide to the blocked assay plate under conditions in which the oligonucleotide tag sequence of the hybridization product can hybridize to the capture oligonucleotides on the assay plate. Incubate at 37° C.; • 4). Perform on-plate digestion of ssRNA with RNase A or RNase I (30° C.-37° C.) to digest the following: • a). ssRNA that has not been hybridized to the probe; • b). Probe hybridized to the plate without the complementary miRNA; and • c). […] Add Read Buffer B to assay plate and measure ECL signal generation with MSD Imager; and • 7). Compare the results against a calibration curve for quantification. […]

miR-122 [2] = conditions: reported by Rissin et al., PLOS One (2017); cited from earlier work
[3] = test system: rs17879961 (CHEK2 c.599T>C); experiment: Lung cancer SNP panel OLA on PCR-amplified cell line DNA; conditions: PCR-amplified DNA from HIL-60 cell line
Description: (§1) The probe sequences used for each mutation are provided in Tables 42 (upstream) and 43 (downstream), below.
(§2) To test the probes for each mutation, probes from either the 1st or 2nd strand were chosen and tested against DNA extracted from a HIL-60 cell line. DNA was extracted using the Gentra Puregene Cell Kit (Qiagen Cat #158388) and 10 ng DNA was amplified using the MyTaq HS Master Mix (Bioline Cat #BIO-25045) and assay-specific PCR forward and revers primers, shown in Tables 44 and 45, respectively.
(§3) Following amplification, OLA was performed as described in Example 7 and the frequency of WT and Mutant alleles was determined.

rs1801133 (MTHFR C677T) = experiment: as above; conditions: PCR-amplified DNA from HIL-60 cell line
Description: as §1, §2, §3

[4] = test system: rs212090 (ABCC1 c.*866T>A); experiment: as above; conditions: PCR-amplified DNA from HIL-60 cell line
Description: as §1, §2, §3

[5] = test system: spot with the capture oligonucleotide with SEQ ID NO: 5; experiment: Comparison of blocking conditions for preparing arrays (cross-reactivity from cross-contamination); type: binding
Description: Blocking conditions for removing excess capture oligonucleotides from arrays were compared. Plates with printed arrays were prepared as described in Example 2 and blocked and washed as described in Example 4, except for varying the composition of the blocking solution. Specificity of the arrays was then characterized as described in Example 4.

[6] = test system: rs8034191 (LOC123688 or HYKK c.337+256T>C); experiment: Lung cancer SNP panel OLA on PCR-amplified cell line DNA; conditions: PCR-amplified DNA from HIL-60 cell line
Description: as §1, §2, §3

rs3842 (ABCB1 c.*193A>G) = experiment: as above; conditions: PCR-amplified DNA from HIL-60 cell line
Description: as §1, §2, §3

rs2273535 (AURKA F31J) = experiment: as above; conditions: PCR-amplified DNA from HIL-60 cell line
Description: as §1, §2, §3

rs1051730 (CHRNA3 D398N) = experiment: as above; conditions: PCR-amplified DNA from HIL-60 cell line
Description: as §1, §2, §3

[7] = test system: rs1801270 (CDKN1A c.93C>A); experiment: as above; conditions: PCR-amplified DNA from HIL-60 cell line
Description: as §1, §2, §3

In the case of “miR-122: synthetic miR-122 miRNA, target sequence in Table 47 (UGGAGUGUGACAAUGGUGUUUG; listed as RNA, chemistry not fully specified; the letters are possibly those of the target site)”, the concentration detected (miR-122 [1]) is listed as 160 fM and the concentration detected (miR-122 [2]) is listed as 500 fM.

With “CHEK2 rs17879961 (DNA TCCATTGCCACTGTGATCTTC; listed as DNA, chemistry not given here)” the “% Mutant” value [3] was 0.8%, the “% Wild-type” value [3] was 99.2% and the Genotype [3] was “Homozygous (WT) (Measured mutation percentages <20% were classified as homozygous wildtype samples)”.

With “MTHFR rs180113 (DNA CTTCACAAAGCGGAAGAATGTG; listed as DNA, chemistry not given here)” the “% Mutant” value (rs1801133 (MTHFR C677T)) was 42.8%, the “% Wild-type” value (rs1801133 (MTHFR C677T)) was 57.2% and the Genotype (rs1801133 (MTHFR C677T)) was “Heterozygous (mutation percentages between 30% and 70% were classified as heterozygous (50% mutation))”.

For “ABCC1 rs212090 (DNA AGGCCATCTCCTTAATATTTACCC; listed as DNA, chemistry not given here)”, the “% Mutant” value [4] was 48.6%, the “% Wild-type” value [4] was 51.4% and the Genotype [4] was “Heterozygous (mutation percentages between 30% and 70% were classified as heterozygous (50% mutation))”.

With `N[C@@H](CS)C(=O)O` [cysteine] the cross-reactivity ([5]; cysteine added to the Tris/Triton formulation) was no more than 0.01% and the blocking effectiveness ([5]; cysteine concentrations ranging from 5 to 50 to 500 mM, separate experiments) was “effective at blocking”.

In the case of “LOC123688 rs8034191 (DNA CCCTGATTTCCACAAGTCC; listed as DNA, chemistry not given here)”, the “% Mutant” value [6] is reported as 1.0%, the “% Wild-type” value [6] is reported as 99.0% and the Genotype [6] is reported as “Homozygous (WT) (Measured mutation percentages <20% were classified as homozygous wildtype samples)”.

With “ABCB1 rs3842 (DNA AGCAAGGCAGTCAGTTACAG; listed as DNA, chemistry not given here)” the “% Mutant” value (rs3842 (ABCB1 c.*193A>G)) was 52.4%, the “% Wild-type” value (rs3842 (ABCB1 c.*193A>G)) was 47.6% and the Genotype (rs3842 (ABCB1 c.*193A>G)) was “Heterozygous (mutation percentages between 30% and 70% were classified as heterozygous (50% mutation))”.

For “AURKA rs2273535 (DNA CTTCCATTCTAGGCTACAGCTC; listed as DNA, chemistry not given here)”, the “% Mutant” value (rs2273535 (AURKA F31J)) was 0.5%, the “% Wild-type” value (rs2273535 (AURKA F31J)) was 99.5% and the Genotype (rs2273535 (AURKA F31J)) was “Homozygous (WT) (Measured mutation percentages <20% were classified as homozygous wildtype samples)”.

In the case of “CHRNA3 rs1051730 (DNA CGGATGTACAGCGAGTATGTG; listed as DNA, chemistry not given here)”, the “% Mutant” value (rs1051730 (CHRNA3 D398N)) is reported as 0.1%, the “% Wild-type” value (rs1051730 (CHRNA3 D398N)) is reported as 99.9% and the Genotype (rs1051730 (CHRNA3 D398N)) is reported as “Homozygous (WT) (Measured mutation percentages <20% were classified as homozygous wildtype samples)”.

In the case of “CDKN1A rs1801270 (DNA TCGAAGTTCCATCGCTCAC; listed as DNA, chemistry not given here)”, the “% Mutant” value [7] is reported as 0.1%, the “% Wild-type” value [7] is reported as 99.9% and the Genotype [7] is reported as “Homozygous (WT) (Measured mutation percentages <20% were classified as homozygous wildtype samples)”.

Source: US20240368676A1, “KITS FOR DETECTING ONE OR MORE TARGET ANALYTES IN A SAMPLE AND METHODS OF MAKING AND USING THE SAME” (Meso Scale Technologies, LLC., priority 2020, published 2024)
